Results from US12617794B2, “GABAA positive allosteric modulator compounds, methods of making, and uses thereof” (NEUROCYCLE THERAPEUTICS, INC., priority 2019, dated 2026).
Read-outs that look alike come from different tables or passages of the source.

Experiments:
Format in all cases: physicochemical
[1] = Intrinsic dissolution rate in SGF (Example 16); conditions: 37° C., 100 rpm, linear scope within 2 to 120 min
Experimental: About 100 mg of Free Base Polymorphic Form A or Phosphate Polymorphic Form A was weighed into the intrinsic dissolution apparatus and the sample compressed for 1 minute with a compression force of ˜4 MPa to form a compacted pellet within the stainless-steel die. All loose powder was removed from the surface of the die. The intrinsic dissolution shaft was connected with the stainless-steel die and tightened so only one surface of the pellet was exposed (surface area=0.496 cm^2). The shaft in the spindle was adjusted to ensure the exposed surface of the compacted tablet was ˜3.8 cm from the bottom of the vessel when lowered. The temperature of chamber water was set at 37° C.±0.5° C., the shaft rotation at 100 rpm and the sampling time points at 2, 5, 10, 15, 30, 45, 60, 120 min. SGF was used as dissolution medium (900 mL). At each time point, solution samples were filtered, and the supernatant was analyzed by HPLC-UV.

[2] = Solubility in aqueous buffers, SGF, FaSSIF and FeSSIF (Example 15); conditions: for solubility thermodynamic: 20 °C, thermodynamic from solid, read-out: Measured Conc.; for solubility thermodynamic / Measured Conc. (μg/mL): ~20-25° C., ~24 hours
Experimental: About 2 mg of test article was added to a 1.5 mL vials which contained ˜1.0 mL of one medium listed in Table 7 and Table 8, which was then sealed. The mixtures were stirred at ˜20-25° C. for ˜24 hours. After that, the mixture was filtered by 0.45 μm filter membrane and then the supernatant was analyzed by HPLC.

[3] = Slurry of Phosphate Form A in acetone with different water content (Example 68); conditions: for Result (solid form after slurry): slurry in acetone at RT
From the text: The suspension was stirred at RT for hours. The solid was isolated and analyzed. […] Phosphate dissociated when water content is >, 4% wt. in acetone at RT.

[4] = Slow cooling crystallization (Example 64); conditions: slow cooling to RT
From the text: The suspensions were filtered to obtain saturated solution, and it was kept in an oil bath to cool to RT. The solids obtained were characterized.
The suspensions were filtered to obtain a saturated solution, and it was kept in an oil bath which was allowed to cool to RT naturally. Any solids obtained were characterized. […] No new phosphate Form was obtained.

Competitive slurry study = test: Competitive slurry study
From the text: Determining which polymorphic form is more thermodynamically stable may be experimentally determined by conventional methods known in the art. For example, a competitive slurry experiment in which a 1:1 mixture of polymorphic forms is stirred for a period of time in a solvent in which both polymorphic forms are partly soluble may be conducted. It is accepted by those skilled in the art that if the 1:1 mixture converts entirely to one polymorphic form, that form that results is more thermodynamically stable of the two, while the other form is metastable.
TPA023B Phosphate of mixed forms was added into specific solvents and stirred at RT or 50° C. for 1 day. The suspensions were filtered and characterized by XRPD.

[5] = One week accelerated stability testing (Example 3)
Experimental: The stability of Phosphate Polymorphic Form A and Free Base Polymorphic Form A were evaluated under accelerated conditions.

[6] = Slurry and stability study of phosphate (30.4, Example 35); conditions: IPAC, EA
From the text: The suspensions were filtered and characterized by XRPD.

[7] = Hygroscopicity by dynamic vapor sorption (DVS), Example 4
Experimental: The hygroscopicity of Phosphate Polymorph Form A was measured by Dynamic vapor sorption (DVS). […] After DVS, XRPD confirmed that the crystalline form was retained (FIG. 19).

[8] = DVS of TPA023B Phosphate Form A (Example 33); conditions: for hygroscopicity: DVS; for crystal form after DVS test: XRPD
[9] = Solid-state stability of Phosphate Form A at 40° C./75% RH and 25° C./95% RH (Example 36); conditions: up to two weeks
[10] = Preliminary (estimated) solubility study of TPA023B Phosphate Form A (30.3, Example 34); conditions: estimated by visual observation
Experimental: Then the mixture was agitated in a shaker block for at least 30 mins. Additional solvent was added in a stepwise manner until all solids were dissolved. The dissolution was checked by visual observation and the amount of solvent required to dissolve all the solids was recorded.

[11] = Approximate solubility study of TPA023B phosphate (Example 25); conditions: RT, listed as TPA023B phosphate
Experimental: The total amount of solvent was recorded to calculate the approximate solubility in these solvents.

SMILES: CC(C)(O)c1cnn2c(-c3ccc(F)c(-c4c(F)cccc4C#N)c3)cnc2n1 [Phosphate Polymorphic Form A, 2′,6-difluoro-5′-[3-(1-hydroxy-1-methylethyl)-imidazo[1,2-b][1,2,4]triazin-7-yl]biphenyl-2-carbonitrile]
- intrinsic dissolution rate [1]: 0.184 mg·cm^−2min^−1
- solubility thermodynamic ([2]; FaSSIF, fassif, FaSSIF): 7.14 µg/mL
- solubility thermodynamic ([2]; FeSSIF, fessif, FeSSIF): 50.7 µg/mL
- solubility thermodynamic ([2]; SGF, simulated gastric fluid, SGF): 3.85 µg/mL
- solubility thermodynamic ([2]; citrate buffer, pH 3, aqueous buffer, pH 3.0 citrate buffer (100 mM), LOQ: 0.1 μg/mL): 0.16 µg/mL
- solubility compared with Free Base Polymorphic Form A ([2]; in SGF, FaSSIF and FeSSIF): higher solubility
- Measured Conc. (μg/mL) ([2]; pH 4.5 citrate buffer (100 mM), LOQ: 0.1 μg/mL): <LOQ
- Measured Conc. (μg/mL) ([2]; pH 7.4 PBS (50 mM), LOQ: 0.1 μg/mL): <LOQ
- Measured Conc. (μg/mL) ([2]; pH 9.0 USP Buffer (50 mM), LOQ: 0.1 μg/mL): <LOQ
- Result (solid form after slurry) ([3]; water content 3 wt. %): Phosphate Form A
- Result (solid form after slurry) ([3]; water content 3.5 wt. %): Phosphate Form A
- Result (solid form after slurry) ([3]; water content 4 wt. %): Phosphate Form A + Free Base Form E
- Result (solid form after slurry) ([3]; water content 4.5 wt. %): Phosphate Form A + Free Base Form E
- Result (solid form after slurry) ([3]; water content 5 wt. %): Phosphate Form A + Free Base Form E
- Result (solid form after slurry) ([3]; water content 5.5 wt. %): Phosphate Form A + Free Base Form E
- Result (solid form after slurry) ([3]; water content 6 wt. %): Phosphate Form A + Free Base Form E
- solid form after slurry in acetone ([3]; water content <3.5% wt., RT): remained unchanged
- solid form after slurry in acetone ([3]; water content >, 4% wt. in acetone at RT): dissociated
- Result (solid form obtained) ([4]; solvent 2-butanone): Phosphate Form A
- Result (solid form obtained) ([4]; solvent 2-methyl tetrahydrofuran): No solid
- Result (solid form obtained) ([4]; solvent ACN): Phosphate Form A
- Result (solid form obtained) ([4]; solvent Anisole): No solid
- Result (solid form obtained) ([4]; solvent BAC): Phosphate Form A
- Result (solid form obtained) ([4]; solvent Butanol): Free Base Form E
- Result (solid form obtained) ([4]; solvent EA): No solid
- Result (solid form obtained) ([4]; solvent Isoamyl alcohol): Free Base Form E
- Result (solid form obtained) ([4]; solvent MAC): No solid
- Result (solid form obtained) ([4]; solvent THF): No solid
- thermodynamic stability among phosphate forms (Competitive slurry study): most thermodynamically stable form
- Assay (%) ([5]; 40° C./75% RH (open), 1 week): 97.12%
- Purity (%) ([5]; 40° C./75% RH (open), 1 week): 99.02%
- Assay (%) ([5]; 80° C. (open), 1 week): 95.99%
- Purity (%) ([5]; 80° C. (open), 1 week): 98.94%
- Purity (%) ([5]; Initial): 98.91%
- Assay (%) ([5]; Initial, assay criterion 95%-105%): 104.60%
- Assay (%) ([5]; Light, ~50 h): 95.25%
- Purity (%) ([5]; Light, ~50 h): 97.55%
- crystal form after slurry (XRPD) ([6]; 100 mg slurried in 2 mL THF, 2-Me THF, acetone and ACN at RT): remains unchanged
- stability in solvents ([6]; THF, 2-Me-THF, Acetone, MTBE or ACN): stable
- crystalline form after DVS (XRPD) [7]: retained
- reversible mass increase (DVS) [7]: about 1.08%
- hygroscopicity ([8]; listed as Phosphate Form A): slightly hygroscopic
- hygroscopicity ([8]; listed as phosphate Form A): slight hygroscopicity
- crystal form after DVS test ([8]; listed as Phosphate Form A): remained unchanged
- crystal form after DVS test ([8]; listed as phosphate Form A): no change
- water absorbed (DVS) ([8]; from 0 to 80% RH): 0.68%
- crystal form after storage ([9]; 25° C./95% RH): remained unchanged
- crystal form after storage ([9]; 40° C./75% RH): remained unchanged
- solubility ([10]; 1,4-Dioxane, organic solvent or mixture, thermodynamic from solid, 1,4-Dioxane, read-out: Solubility): 25000 µg/mL
- solubility ([10]; 2-Me THF, organic solvent or mixture, thermodynamic from solid, 2-Me THF, read-out: Solubility): 20000 µg/mL
- solubility ([10]; ACN, organic solvent or mixture, thermodynamic from solid, ACN, read-out: Solubility): < 2000 µg/mL
- solubility ([10]; DCM, organic solvent or mixture, thermodynamic from solid, DCM, read-out: Solubility): 2000 µg/mL
- solubility ([10]; DMF, organic solvent or mixture, thermodynamic from solid, DMF, read-out: Solubility): 96000 µg/mL
- solubility ([10]; DMSO, organic solvent or mixture, thermodynamic from solid, DMSO, read-out: Solubility): 93000 µg/mL
- solubility ([10]; EA, organic solvent or mixture, thermodynamic from solid, EA, read-out: Solubility): < 2000 µg/mL
- solubility ([10]; EA, listed as TPA023B Phosphate Form A): <2000 µg/mL
- solubility ([10]; Heptane, listed as TPA023B Phosphate Form A): <1000 µg/mL
- solubility ([10]; IPA, organic solvent or mixture, thermodynamic from solid, IPA, read-out: Solubility): 2500 µg/mL
- solubility ([10]; MTBE, organic solvent or mixture, thermodynamic from solid, MTBE, read-out: Solubility): < 2000 µg/mL
- solubility ([10]; MTBE, listed as TPA023B Phosphate Form A): <1500 µg/mL
- solubility ([10]; THF, organic solvent or mixture, thermodynamic from solid, THF, read-out: Solubility): 28000 µg/mL
- solubility ([10]; Water, listed as TPA023B Phosphate Form A): <2000 µg/mL
- solubility ([10]; acetone, organic solvent or mixture, thermodynamic from solid, Acetone, read-out: Solubility): 7000 µg/mL
- solubility ([10]; ethanol, organic solvent or mixture, thermodynamic from solid, Ethanol, read-out: Solubility): 3000 µg/mL
- solubility ([10]; heptane, organic solvent or mixture, thermodynamic from solid, Heptane, read-out: Solubility): < 2000 µg/mL
- solubility ([10]; methanol, organic solvent or mixture, thermodynamic from solid, Methanol, read-out: Solubility): 9500 µg/mL
- solubility ([10]; water, thermodynamic from solid, Water, read-out: Solubility): < 2000 µg/mL
- Solubility (mg/mL) ([11]; DMF): relatively high solubility
- Solubility (mg/mL) ([11]; DMSO): relatively high solubility
